Molecules are shown by their SMILES.

The subject of one data set is HTT mRNA. Put plainly: Gene panel canonical junction qPCR assay, HTT CJ mRNA decrease. Type of data set: cell-based, human. The settings on record: Homo sapiens, canonical junction qPCR, read-out: HTT IC50 (decrease in CJ mRNA levels). In a few lines: (§1)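 A673 or K562 cells treated with compound; canonical exon-exon junction mRNA quantified by cDNA synthesis and RT-qPCR with junction-spanning primer/probe, normalized to GAPDH, GUSB or PPIA and DMSO (2^(−ΔΔCt)). Percent response from set ΔCt assay windows fitted to 4-parameter logistic; IC50 for CJ decrease.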
A general note: Quantitative PCR measures a nucleic acid by following its amplification.

A further data set relates to SMN2 mRNA. The experiment in a line: Gene panel canonical junction qPCR assay, SMN2 CJ mRNA decrease. Type of data set: cell-based, human. The conditions noted are these: Homo sapiens, canonical junction qPCR, read-out: SMN2 IC50 (decrease in CJ mRNA levels). In a few lines:
as §1

Another data set has as its system MYB mRNA. Put plainly: Gene panel canonical junction qPCR assay, MYB CJ mRNA decrease. The conditions noted are these: Homo sapiens, canonical junction qPCR, read-out: MYB IC50 (decrease in CJ mRNA levels). Type of data set: cell-based, human. In outline: as §1
In a further data set the test system is HiBiT-tagged MYB protein. Put plainly: HiBiT protein abundance assay, MYB (K562 HiBiT knock-in cells). The settings on record: 24 hours. It counts as cell-based, human. In outline:
(§2)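 K562 cells with endogenous HiBiT knock-in tag, 10-point 3-fold dilutions (top 10 μM final, ≤0.25% DMSO), 24 h at 37 °C. Lytic Nano-Glo HiBiT luminescence, normalized to DMSO and unmodified K562 baselines; IC50 is concentration giving 50% protein abundance from four-parameter fit.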
(In general: HiBiT is a short tag that completes a luciferase, so light tracks the accessible tagged protein.)

In another data set the test system is Target C mRNA. Put plainly: Gene panel canonical junction qPCR assay, Target C CJ mRNA decrease. Type of data set: cell-based. The settings on record: Homo sapiens, canonical junction qPCR, read-out: Target C IC50 (decrease in CJ mRNA levels). In outline:
as §1

The next data set concerns HiBiT-tagged HTT protein. The experiment in a line: HiBiT protein abundance assay, HTT (K562 HiBiT knock-in cells). Type of data set: cell-based, human. The conditions noted are these: 24 hours. In outline: as §2
A further data set concerns K562 cells. The experiment in a line: Cell Titer Glo 2.0 cell viability assay in K562 cells. The settings on record: 72 hours. (In general: In ATP-based viability assays light output follows the ATP content of the culture.)

On to `COc1ccc2c(N3C[C@@H](C)N[C@@H](C)C3)ccc(C(=O)Nc3cc(F)c4nc(C)cn4c3)c2n1` [Compound 268, 5-[(3R,5S)-3,5-dimethylpiperazin-1-yl]-N-{8-fluoro-2-methylimidazo[1,2-a]pyridin-6-yl}-2-methoxyquinoline-8-carboxamide], for which the IC50 – broadly, the concentration that inhibits the measured activity by half – in the data set on HTT mRNA is 1000 to 10000 nM; with SMN2 mRNA, less than 100 nM; with MYB mRNA, 100 to 1000 nM; with HiBiT-tagged MYB protein, less than 100 nM; in the data set on Target C mRNA it was 1000 to 10000 nM; in the data set on HiBiT-tagged HTT protein it was 1000 to 10000 nM. Besides, the Viability result with K562 cells was “B (B represents 100-1000 nM)”.
`Cc1cn2cc(NC(=O)c3ccc(N4CC[C@@H](N)C4)c4ccnnc34)cc(F)c2n1` [Compound 270]: the IC50 with HTT mRNA was 1000 to 10000 nM; in the data set with SMN2 mRNA, less than 100 nM; in the data set with MYB mRNA, 100 to 1000 nM; in the data set on HiBiT-tagged MYB protein, 100 to 1000 nM; in the data set with Target C mRNA, greater than 10000 nM; with HiBiT-tagged HTT protein, 1000 to 10000 nM. In the data set with K562 cells, the Viability entry is given as “B (B represents 100-1000 nM)”.
As to `COc1cc2c(N3C[C@@H](C)N[C@@H](C)C3)ccc(C(=O)Nc3cc(F)c4nc(C)cn4c3)c2nn1` [Compound 273, 5-[(3R,5S)-3,5-dimethylpiperazin-1-yl]-N-{8-fluoro-2-methylimidazo[1,2-a]pyridin-6-yl}-3-methoxycinnoline-8-carboxamide], the concentration for half-maximal inhibition (IC50) is 100 to 1000 nM in the data set with HTT mRNA; less than 100 nM in the data set on SMN2 mRNA; 100 to 1000 nM with MYB mRNA; 100 to 1000 nM with HiBiT-tagged MYB protein; 100 to 1000 nM in the data set with Target C mRNA; 100 to 1000 nM with HiBiT-tagged HTT protein. In addition, in the data set with K562 cells, the Viability result is listed as “B (B represents 100-1000 nM)”.
For `COc1nc(NC(=O)c2ccc(N3C[C@@H](C)N[C@@H](C)C3)c3nccnc23)cn2cc(C)nc12` [Compound 277], the IC50 is 100 to 1000 nM in the data set on HTT mRNA; less than 100 nM in the data set on SMN2 mRNA; less than 100 nM with MYB mRNA; less than 100 nM with HiBiT-tagged MYB protein; 1000 to 10000 nM in the data set on Target C mRNA; 100 to 1000 nM in the data set with HiBiT-tagged HTT protein. Moreover, the Viability result with K562 cells was “B (B represents 100-1000 nM)”.
With `Cc1cn2cc(NC(=O)c3ccc(N4C[C@@H](C)N[C@@H](C)C4)c4ncc(Cl)nc34)cc(F)c2n1` [Compound 281], the IC50 in the data set with HTT mRNA was greater than 10000 nM; with SMN2 mRNA, 1000 to 10000 nM; with MYB mRNA, 1000 to 10000 nM; in the data set with HiBiT-tagged MYB protein it was 1000 to 10000 nM; with Target C mRNA, greater than 10000 nM; with HiBiT-tagged HTT protein, 1000 to 10000 nM. Also, the Viability entry with K562 cells was “C (C represents 1000-9999 nM)”.
In the case of `Cc1cn2cc(NC(=O)c3ccc(N4C[C@@H](C)N[C@@H](C)C4)c4ncc(N(C)C)nc34)cc(F)c2n1` [Compound 283], the IC50 was 100 to 1000 nM with HTT mRNA; less than 100 nM in the data set with SMN2 mRNA; less than 100 nM with MYB mRNA; less than 100 nM in the data set with HiBiT-tagged MYB protein; 100 to 1000 nM with Target C mRNA; 100 to 1000 nM in the data set with HiBiT-tagged HTT protein. For the same compound, the Viability result in the data set on K562 cells is “B (B represents 100-1000 nM)”.
As for `Cc1cn2c(C)c(NC(=O)c3ccc(N4C[C@@H](C)N[C@@H](C)C4)c4nccnc34)cc(F)c2n1` [Compound 285], the IC50 in the data set with HTT mRNA lay within 1000 to 10000 nM; in the data set on SMN2 mRNA, 100 to 1000 nM; in the data set with MYB mRNA, 100 to 1000 nM; with HiBiT-tagged MYB protein, 100 to 1000 nM; in the data set with Target C mRNA, 1000 to 10000 nM; in the data set with HiBiT-tagged HTT protein it was 1000 to 10000 nM. Besides, the Viability result with K562 cells is “C (C represents 1000-9999 nM)”.
Turning to `COc1nc(NC(=O)c2ccc(N3C[C@@H](C)N[C@@H](C)C3)c3nccnc23)nc2cn(C)nc12` [Compound 287], the half-inhibitory concentration (IC50) was greater than 10000 nM with HTT mRNA; 1000 to 10000 nM with SMN2 mRNA; 1000 to 10000 nM with MYB mRNA; 1000 to 10000 nM with HiBiT-tagged MYB protein; greater than 10000 nM in the data set with Target C mRNA; greater than 10000 nM in the data set with HiBiT-tagged HTT protein. In the data set on K562 cells, the Viability entry is given as “D (D represents greater than 10 μM in K562 cells)”.
With `Cc1cn2cc(NC(=O)c3ccc(N4C[C@@H](C)N[C@@H](C)C4)c4nccnc34)nc(C)c2n1` [Compound 288], the IC50 in the data set with HTT mRNA is 1000 to 10000 nM; in the data set with SMN2 mRNA, less than 100 nM; in the data set with MYB mRNA it was less than 100 nM; in the data set with HiBiT-tagged MYB protein, less than 100 nM; with Target C mRNA, 1000 to 10000 nM; with HiBiT-tagged HTT protein, 1000 to 10000 nM. For the same compound, in the data set with K562 cells, the Viability entry was “C (C represents 1000-9999 nM)”.
Consider `C[C@@H]1CN(c2ccc(C(=O)Nc3ccc4nc(N(C)C)oc4c3)c3nccnc23)C[C@H](C)N1` [Compound 290], for which the IC50 in the data set on HTT mRNA is greater than 10000 nM; in the data set with SMN2 mRNA, greater than 10000 nM; in the data set on MYB mRNA, 1000 to 10000 nM; in the data set with HiBiT-tagged MYB protein it was greater than 10000 nM; in the data set with Target C mRNA, greater than 10000 nM; in the data set on HiBiT-tagged HTT protein, greater than 10000 nM. Also, the Viability result in the data set with K562 cells is on record as “D (D represents greater than 10 μM in K562 cells)”.
With `COc1nc2ccc(NC(=O)c3ccc(N4C[C@@H](C)N[C@@H](C)C4)c4nccnc34)cc2o1` [Compound 292], the IC50 is greater than 10000 nM in the data set with HTT mRNA; 1000 to 10000 nM in the data set with SMN2 mRNA; 1000 to 10000 nM with MYB mRNA; 1000 to 10000 nM in the data set with HiBiT-tagged MYB protein; greater than 10000 nM in the data set on Target C mRNA; greater than 10000 nM in the data set on HiBiT-tagged HTT protein. Moreover, the Viability entry in the data set on K562 cells is “D (D represents greater than 10 μM in K562 cells)”.
`Cc1cn2cc(NC(=O)c3ccc(N4C[C@@H](C)N[C@@H](C)C4)c4nccnc34)cc(C#N)c2n1` [Compound 294]: the IC50 with HTT mRNA was 1000 to 10000 nM; in the data set on SMN2 mRNA, less than 100 nM; with MYB mRNA, 100 to 1000 nM; with HiBiT-tagged MYB protein, 100 to 1000 nM; with Target C mRNA, greater than 10000 nM; in the data set with HiBiT-tagged HTT protein, greater than 10000 nM. For the same compound, the Viability entry in the data set with K562 cells is given as “D (D represents greater than 10 μM in K562 cells)”.
For `CCOc1cnc2c(N3C[C@@H](C)N[C@@H](C)C3)ccc(C(=O)Nc3cc(F)c4nc(C)cn4c3)c2n1` [Compound 296], the IC50 was 100 to 1000 nM in the data set on HTT mRNA; less than 100 nM with SMN2 mRNA; less than 100 nM in the data set with MYB mRNA; less than 100 nM with HiBiT-tagged MYB protein; 1000 to 10000 nM in the data set with Target C mRNA; 100 to 1000 nM in the data set with HiBiT-tagged HTT protein. The Viability entry in the data set on K562 cells was “B (B represents 100-1000 nM)”.
In the case of `COc1nc(NC(=O)c2ccc(N3C[C@@H](C)N[C@@H](C)C3)c3nccnc23)cc2oc(C)nc12` [Compound 298], the IC50 is greater than 10000 nM with HTT mRNA; less than 100 nM in the data set on SMN2 mRNA; 100 to 1000 nM in the data set with MYB mRNA; 100 to 1000 nM with HiBiT-tagged MYB protein; greater than 10000 nM with Target C mRNA; 1000 to 10000 nM with HiBiT-tagged HTT protein. Moreover, in the data set with K562 cells, the Viability result is “C (C represents 1000-9999 nM)”.
In the case of `Cc1cn2cc(NC(=O)c3ccc(N4C[C@@H](C)N[C@@H](C)C4)c4cncnc34)cc(F)c2n1` [Compound 302], the IC50 in the data set on HTT mRNA is 1000 to 10000 nM; in the data set on SMN2 mRNA it was less than 100 nM; with MYB mRNA, 100 to 1000 nM; in the data set with HiBiT-tagged MYB protein it was 100 to 1000 nM; in the data set with Target C mRNA, 1000 to 10000 nM; with HiBiT-tagged HTT protein, 1000 to 10000 nM. The Viability result with K562 cells is recorded as “C (C represents 1000-9999 nM)”.
Take `Cc1cn2cc(NC(=O)c3ccc(N4C[C@@H](C)N[C@@H](C)C4)c4nccnc34)cc(Cl)c2n1` [Compound 304]: the IC50 in the data set with HTT mRNA was 1000 to 10000 nM; with SMN2 mRNA, less than 100 nM; with MYB mRNA it was less than 100 nM; in the data set with HiBiT-tagged MYB protein, less than 100 nM; in the data set on Target C mRNA it was greater than 10000 nM; in the data set with HiBiT-tagged HTT protein, greater than 10000 nM. Moreover, in the data set on K562 cells, the Viability entry is “B (B represents 100-1000 nM)”.

The values are drawn from patent US20240409536A1, “COMPOUNDS AND METHODS FOR MODULATING SPLICING” (REMIX THERAPEUTICS INC., priority 2021, published 2024).
